Strand notation (5' to 3'): a small letter for the sugar, then the base; units joined by * are phosphorothioate-linked, units joined directly phosphodiester-linked; [ ] holds rarer units or linkages, { } end groups; capitals alone tell only the bases. l = locked nucleic acid (LNA); [5mC] = 5-methylcytosine; d = 2'-deoxy (DNA)
What was measured:
[1] = tested on: human androgen receptor mRNA; assay: Inhibition of androgen receptor mRNA expression in MCF7 cells, real-time PCR after transfection; format: cell-based; conditions: 16 nM oligonucleotide, AR mRNA normalised to GAPDH, down-regulation relative to mock transfected cells
Protocol: (§1) FIG. 1. Oligonucleotides presented in Table 3 were evaluated for their potential to knockdown the androgen receptor mRNA at concentrations of 1, 4 and 16 n-M in MCF7 cells 24 hours after transfection using Real-time PCR. All results were normalised to GAPDH and inhibition of AR mRNA is shown as percent of untreated control. Results shown are an average of three independent experiments.
MCF7 The human breast cancer cell line MCF7 was cultured in EagleMEM (Sigma)+10% fetal bovine serum (FBS)+2 mM Glutamax I+1×NEAA+gentamicin (25 μg/ml).
(§2) The cell lines listed in Example 4 were treated with an oligomer using the cationic liposome formulation LipofectAMINE 2000 (Gibco) as transfection vehicle. Cells were seeded in 6-well cell culture plates (NUNC) and treated when 80-90% confluent. Oligomer concentrations used ranged from 1 nM to 16 nM final concentration. Formulation of oligomer-lipid complexes were carried out essentially as described by the manufacturer using serum-free OptiMEM (Gibco) and a final lipid concentration of 5 μg/mL LipofectAMINE 2000. Cells were incubated at 37° C. for 4 hours and treatment was stopped by removal of oligomer-containing culture medium. Cells were washed and serum-containing media was added. After oligomer treatment, cells were allowed to recover for 20 hours before they were harvested for RNA analysis.
(§3) Total RNA was extracted from cells transfected as described above and using the Qiagen RNeasy kit (Qiagen cat. no. 74104) according to the manufacturer's instructions. First strand synthesis was performed using Reverse Transcriptase reagents from Ambion according to the manufacturer's instructions.
(§4) For each sample, the volume of 0.5 •g total RNA was adjusted to 10.8 •l with RNase free H2O and mixed with 2 •l random decamers (50 •M) and 4 •l dNTP mix (2.5 mM each dNTP) and heated to 70° C. for 3 min, after which the samples were rapidly cooled on ice. After cooling the samples on ice, 2 •l 10× Buffer RT, 1 •l MMLV Reverse Transcriptase (100 U/•l) and 0.25 •l RNase inhibitor (10 U/•l) were added to each sample, followed by incubation at 42° C. for 60 min, heat inactivation of the enzyme at 95° C. for 10 min and then cooling of the sample to 4° C.
(§5) The amount of human androgen receptor mRNA in the samples was quantified using the human androgen receptor ABI Prism Pre-Developed TaqMan Assay Reagents (Applied Biosystems cat. no. Hs00171172_m1) according to the manufacturer's instructions.
(§6) Glyceraldehyde-3-phosphate dehydrogenase (GAPDH) mRNA quantity was used as an endogenous control for normalizing any variance in sample preparation.
(§7) The cDNA from the first strand synthesis performed as described in Example 6 was diluted 2-20 times, and analyzed by real time quantitative PCR using Taquman 7500 FAST or 7900 FAST from Applied Biosystems. The primers and probe were mixed with 2× Taqman Fast Universal PCR master mix (2×) (Applied Biosystems Cat. #4364103) and added to 4 μl cDNA to a final volume of 10 μl. Each sample was analysed in duplicate. Standard curves were generated by assaying 2-fold dilutions of a cDNA that had been prepared on material purified from a cell line expressing the RNA of interest. Sterile H2O was used instead of cDNA for the no-template control. PCR program: 95° C. for 30 seconds, followed by 40 cycles of 95° C., 3 seconds, 60° C., 20-30 seconds. Relative quantities of target mRNA were determined from the calculated Threshold cycle using the Applied Biosystems Fast System SDS Software Version 1.3.1.21. or SDS Software Version 2.3.
(§8) Oligonucleotides presented in Table 3 were evaluated for their potential to knock down androgen receptor mRNA expression at concentrations of 1, 4 and 16 nM (see FIGS. 1 and 2).
(§9) The data in Table 3 are presented as percentage down-regulation relative to mock transfected cells at 16 nM. Lower case letters represent DNA monomers, bold, upper case letters represent β-D-oxy-LNA monomers. All cytosine bases in the LNA monomers are 5-methylcytosines. […]

[2] = tested on: human androgen receptor mRNA; assay: Inhibition of androgen receptor mRNA expression in A549 cells, real-time PCR after transfection; format: cell-based; conditions: 16 nM oligonucleotide, AR mRNA normalised to GAPDH, down-regulation relative to mock transfected cells
Protocol: as §1, with “2.” for “1.”, “nM” for “n-M”, “A549” for “MCF7”
A549 The human lung cancer cell line […] was cultured in DMEM (Sigma)+10% fetal bovine serum (FBS)+2 mM Glutamax I+gentamicin (25 μg/ml).
as §2, §3, §4, §5, §6, §7, §8, §9

[3] = tested on: mouse androgen receptor mRNA; assay: In vivo knock-down of AR mRNA expression in mouse liver (QPCR); conditions: nude mice, 100 mg/kg i.v. q3dx4, liver 24 h after last dosing, normalised to mouse GAPDH, relative to saline treated animals
Protocol: Nude mice were dosed i.v. q3dx4 with 100 mg/kg oligonucleotide (group size of 5 mice). The antisense oligonucleotides (SEQ ID:48, SEQ ID:51, SEQ ID:58, SEQ ID:63, SEQ ID:77) were dissolved in phosphate buffered saline. Animals were sacrificed 24 h after last dosing and liver tissue was sampled and stored in RNA later until RNA extraction and QPCR analysis. Total RNA was extracted and AR mRNA expression in liver samples was measured by QPCR as described in Example 7 using a mouse AR QPCR assay (cat. Mm01238475_m1, Applied Biosystems). Results were normalised to mouse GAPDH (cat. no. 4352339E, Applied Biosystems) and knock-own was quantitated relative to saline treated controls. The data in Table 4 are presented as percentage down-regulation relative to saline treated animals.

Row | Substance | Percent inhibition of Androgen receptor - MCF7 [1] [%] | Percent inhibition of Androgen receptor - A549 [2] [%] | Liver (% KD) of AR mRNA expression [3]
1 | 5′-CsCsCscstsgsgsascstscsasgsAsTsG-3′ (antisense l[5mC]*l[5mC]*l[5mC]*dC*dT*dG*dG*dA*dC*dT*dC*dA*dG*lA*lT*lG) [SEQ ID NO: 46, LNA gapmer antisense oligonucleotide] | 89.4 | 82.8 | 
2 | 5′-CsTsTsgsgscscscsascststsgsAsCsC-3′ (antisense l[5mC]*lT*lT*dG*dG*dC*dC*dC*dA*dC*dT*dT*dG*lA*l[5mC]*l[5mC]) [SEQ ID NO: 61, LNA gapmer antisense oligonucleotide] | 86.7 | 93.3 | 
3 | 5′-CsAsGsgscsasgsasasgsascsasTsCsT-3′ (antisense l[5mC]*lA*lG*dG*dC*dA*dG*dA*dA*dG*dA*dC*dA*lT*l[5mC]*lT) [SEQ ID NO: 76, LNA gapmer antisense oligonucleotide] | 85.9 | 94.3 | 
4 | 5′-GsAsAsgststscsastscsasasasGsAsA-3′ (antisense lG*lA*lA*dG*dT*dT*dC*dA*dT*dC*dA*dA*dA*lG*lA*lA) [SEQ ID NO: 68, LNA gapmer antisense oligonucleotide] | 88.2 | 85.6 | 
5 | 5′-TsTsTsgsascsascsasasgstsgsGsGsA-3′ (antisense lT*lT*lT*dG*dA*dC*dA*dC*dA*dA*dG*dT*dG*lG*lG*lA) [SEQ ID NO: 51, LNA gapmer antisense oligonucleotide] |  |  | 65.0 +/− 12.6%
6 | 5′-GsCsAscsasasgsgsasgstsgsgsGsAsC-3′ (antisense lG*l[5mC]*lA*dC*dA*dA*dG*dG*dA*dG*dT*dG*dG*lG*lA*l[5mC]) [SEQ ID NO: 47, LNA gapmer antisense oligonucleotide] | 83.1 | 77.7 | 
7 | 5′-GsAsGsasascscsastscscstscsAsCsC-3′ (antisense lG*lA*lG*dA*dA*dC*dC*dA*dT*dC*dC*dT*dC*lA*l[5mC]*l[5mC]) [SEQ ID NO: 44] | 80.1 | 63.8 | 
8 | 5′-TsCsCstsgsgsasgststsgsascsAsTsT-3′ (antisense lT*l[5mC]*l[5mC]*dT*dG*dG*dA*dG*dT*dT*dG*dA*dC*lA*lT*lT) [SEQ ID NO: 62, LNA gapmer antisense oligonucleotide] | 81.3 | 93.0 | 
9 | 5′-TsTsGscsascsasgsasgsastsgsAsTsC-3′ (antisense lT*lT*lG*dC*dA*dC*dA*dG*dA*dG*dA*dT*dG*lA*lT*l[5mC]) [SEQ ID NO: 72, LNA gapmer antisense oligonucleotide] | 79.2 | 90.4 | 
10 | 5′-GsGsAscscsasgsgstsasgscscsTsGsT-3′ (antisense lG*lG*lA*dC*dC*dA*dG*dG*dT*dA*dG*dC*dC*lT*lG*lT) [SEQ ID NO: 45, LNA gapmer antisense oligonucleotide] | 89.0 | 88.2 | 
11 | 5′-CsAsTscscscstsgscststscsasTsAsA-3′ (antisense l[5mC]*lA*lT*dC*dC*dC*dT*dG*dC*dT*dT*dC*dA*lT*lA*lA) [SEQ ID NO: 57, LNA gapmer antisense oligonucleotide] | 89.5 | 88.9 | 
12 | 5′-GsCsTststscsastsgscsascsasgsGsA-3′ (antisense lG*l[5mC]*lT*dT*dT*dC*dA*dT*dG*dC*dA*dC*dA*dG*lG*lA) [SEQ ID NO: 67, LNA gapmer antisense oligonucleotide] | 83.5 | 97.0 | 
13 | 5′-CsAsTscscsasasascstscststsGsAsG-3′ (antisense l[5mC]*lA*lT*dC*dC*dA*dA*dA*dC*dT*dC*dT*dT*lG*lA*lG) [SEQ ID NO: 66, LNA gapmer antisense oligonucleotide] | 79.8 | 95.3 | 
